# Experiments:
# Format in all cases: cell-based
# human P2X3 receptor [1] = target: T1, human P2X3 receptor (Homo sapiens, UniProt P56373); test: Intracellular calcium measurement to assess antagonist activity at human P2X3 receptors (hP2X3 CHO), photina luminescence; parameters: expressed in transfected cells; host or cells: Chinese hamster ovary (CHO) cells; conditions: column 2), CHO cells, agonist α,β-methylene-ATP at EC50
# T1 sequence (P56373 1-397): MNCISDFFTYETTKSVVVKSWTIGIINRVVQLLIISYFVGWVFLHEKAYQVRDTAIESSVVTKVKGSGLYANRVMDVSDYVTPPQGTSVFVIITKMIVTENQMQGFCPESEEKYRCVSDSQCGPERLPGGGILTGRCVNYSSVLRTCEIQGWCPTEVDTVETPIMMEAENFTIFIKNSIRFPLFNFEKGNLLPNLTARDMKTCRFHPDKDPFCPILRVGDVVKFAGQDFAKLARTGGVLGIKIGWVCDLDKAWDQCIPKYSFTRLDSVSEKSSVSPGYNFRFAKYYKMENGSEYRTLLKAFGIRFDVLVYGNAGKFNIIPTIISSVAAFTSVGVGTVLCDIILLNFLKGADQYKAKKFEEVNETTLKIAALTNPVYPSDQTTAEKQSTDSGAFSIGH
# How it was run: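 Antagonism read as lowered photina luminescence after agonist stimulation in recombinant hP2X3/photina CHO cells. Cells seeded one day earlier (30 °C) and reconstituted with 5 μg/ml coelenterazine in 2 mM Ca-tyrode buffer for 3 h at 37 °C before measurement.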
# human P2X2/3 receptors = target: T2, human P2X2/3 receptors (Homo sapiens, UniProt P56373+Q9UBL9); test: Intracellular calcium measurement, antagonist activity at human P2X2/3 receptors (hP2X23 1321N1), Fluo8; conditions: for IC50: column 4); 1321N1 cells, human P2X2/3, Fluo8, agonist ATP at EC50; read-out: 4) hP2X2/3 IC50 [nM] (1321N1); for hP2X23/hP2X3* Selectivity (1321N1): ratio of column 4) hP2X2/3 to column 3) hP2X3, 1321N1
# T2 construct: expressed in transfected cells; host or cells: human astrocytoma 1321N1 (1312N1 [sic])
# T2 sequence (P56373 1-397): T1 sequence (P56373 1-397)
# T2 sequence (Q9UBL9 1-471): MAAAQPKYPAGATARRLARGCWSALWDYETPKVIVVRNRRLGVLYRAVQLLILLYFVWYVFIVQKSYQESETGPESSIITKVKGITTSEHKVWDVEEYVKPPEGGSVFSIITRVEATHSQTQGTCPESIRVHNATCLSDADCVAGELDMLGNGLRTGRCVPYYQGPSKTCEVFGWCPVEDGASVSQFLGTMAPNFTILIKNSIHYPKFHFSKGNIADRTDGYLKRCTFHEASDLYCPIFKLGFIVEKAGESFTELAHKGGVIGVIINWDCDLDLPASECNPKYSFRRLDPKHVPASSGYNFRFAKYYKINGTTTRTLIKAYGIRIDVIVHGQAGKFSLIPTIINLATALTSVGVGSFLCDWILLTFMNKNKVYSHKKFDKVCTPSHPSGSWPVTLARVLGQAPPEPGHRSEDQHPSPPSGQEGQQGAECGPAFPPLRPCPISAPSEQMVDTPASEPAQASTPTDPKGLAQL
# How it was run: (§1)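 Antagonism was assessed by decrease of the Fluo8 calcium signal after ATP challenge, with ATP dosed at the EC50 of whichever receptor was tested. Stable 1321N1 astrocytoma lines expressed either human P2X3 or both P2X2 and P2X3, and were dye-loaded 60 min before a 10 min compound incubation.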
# human P2X3 receptor [2] = target: T1, human P2X3 receptor; test: Intracellular calcium measurement, antagonist activity at human P2X3 receptors (hP2X3 1321N1), Fluo8; parameters: expressed in transfected cells; host or cells: human astrocytoma 1321N1 (1312N1 [sic]); conditions: column 3); 1321N1 cells, human P2X3, Fluo8, agonist ATP at EC50
# How it was run: as §1
SMILES,IC50 (human P2X3 receptor [1]),IC50 (human P2X2/3 receptors),hP2X23/hP2X3* Selectivity (1321N1) (human P2X2/3 receptors),IC50 (human P2X3 receptor [2])
"CC(C)NC(=O)Nc1cc2n(CC(=O)Nc3ccc(F)cn3)c3c(c(=O)n2n1)CN(C(C)C)C3=O [Example 290, 2-[5,8-dioxo-6-(propan-2-yl)-2-{[(propan-2-yl)carbamoyl]amino}-5,6,7,8-tetrahydro-4H-pyrazolo[1,5-a]pyrrolo[3,4-d]pyrimidin-4-yl]-N-(5-fluoropyridin-2-yl)acetamide]",115 nM,4650 nM,44,105 nM
"CC(C)N1Cc2c(n(CC(=O)Nc3ccc(F)cn3)c3cc(C4CCS(=O)(=O)CC4)nn3c2=O)C1=O [Example 229, 2-[2-(1,1-dioxo-1lambda^6-thian-4-yl)-5,8-dioxo-6-(propan-2-yl)-5,6,7,8-tetrahydro-4H-pyrazolo[1,5-a]pyrrolo[3,4-d]pyrimidin-4-yl]-N-(5-fluoropyridin-2-yl)acetamide]",39 nM,> 32000 nM,>1185,27 nM
CC(C)N1Cc2c(n(CC(=O)Nc3ccc(F)cn3)c3cc(NC(=O)C(F)F)nn3c2=O)C1=O [Example 283],165 nM,> 32000 nM,>92,347 nM
CCc1cc2n(CC(=O)Nc3ccc(F)cn3)c3c(c(=O)n2n1)CN(C1CCN(C(C)=O)C1)C3=O (centres unmarked) [Example 265],533 nM,> 32000 nM,>68,470 nM
COC[C@H](C)N1Cc2c(n(CC(=O)Nc3ccc(F)cn3)c3cc(C(=O)NC4CC4)nn3c2=O)C1=O [Example 192],56 nM,> 19600 nM,>530,37 nM
"CCc1cc2n(CC(=O)Nc3ccc(F)cn3)c3c(c(=O)n2n1)CN(C[C@H]1CN(C)CCO1)C3=O [Example 255, 2-(2-ethyl-6-{[(2R)-4-methylmorpholin-2-yl]methyl}-5,8-dioxo-5,6,7,8-tetrahydro-4H-pyrazolo[1,5-a]pyrrolo[3,4-d]pyrimidin-4-yl)-N-(5-fluoropyridin-2-yl)acetamide]",400 nM,11300 nM,26,440 nM
CNC(=O)c1cc2n(CC(=O)Nc3ccc(F)cn3)c3c(c(=O)n2n1)CN([C@@H](C)COC)C3=O [Example 193],155 nM,> 22500 nM,>180,125 nM
"CC(C)N1Cc2c(n(CC(=O)Nc3ccc(F)cn3)c3cc(C4CCN(C(=O)OC(C)(C)C)C4)nn3c2=O)C1=O (racemic) [Example 226, tert-butyl(±)-3-[4-{2-[(5-fluoropyridin-2-yl)amino]-2-oxoethyl}-5,8-dioxo-6-(propan-2-yl)-5,6,7,8-tetrahydro-4H-pyrazolo[1,5-a]pyrrolo[3,4-d]pyrimidin-2-yl]pyrrolidine-1-carboxylate]",22 nM,3050 nM,78,39 nM
CCc1cc2n(CC(=O)Nc3ccc(F)cn3)c3c(c(=O)n2n1)CN(CC1CCOCC1)C3=O [Example 83],370 nM,> 32000 nM,>48,665 nM
CCc1cc2n(CC(=O)Nc3ccc(Cl)cn3)c3c(c(=O)n2n1)CN(CC1CCOC1)C3=O (centres unmarked) [Example 60],105 nM,> 19800 nM,>41,480 nM
"CCc1cc2n(CC(=O)Nc3ccc(F)cn3)c3c(c(=O)n2n1)CN(C[C@@H]1CNCCO1)C3=O [Example 246, 2-{2-ethyl-6-[(2S)-morpholin-2-ylmethyl]-5,8-dioxo-5,6,7,8-tetrahydro-4H-pyrazolo[1,5-a]pyrrolo[3,4-d]pyrimidin-4-yl}-N-(5-fluoropyridin-2-yl)acetamide]",830 nM,> 32000 nM,>15,2200 nM

# Source: patent US11319324B2, “Pyrazolo-pyrrolo-pyrimidine-dione derivatives as P2X3 inhibitors” (Bayer Aktiengesellschaft, priority 2017, dated 2022)
